These results are taken from PubChem BioAssay (NCI).

Holding throughout (experiment): NCI tumour cell line growth inhibition, 48 h
Test [1] relates to SK-MEL-2 melanoma.
Test [2] deals with TK-10 renal.
For test [3], the system named is OVCAR-8 ovarian.
The test system of test [4] is COLO 205 colon.
The test system of test [5] is EKVX NSCLC.
The test system of test [6] is UACC-257 melanoma.
Test [7] relates to UACC-62 melanoma.
The subject of test [8] is ACHN renal.
Test [9] concerns DU-145 prostate.
In test [10] the test system is NCI-H23 lung.

Molecules are shown by their SMILES.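 Method: 48-hour compound exposure of cells in 96-well plates, five concentrations, linear interpolation of endpoints. Here, GI50 denotes the concentration required for 50% inhibition of growth. TGI: total growth inhibition.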

In the case of `O=C(CC(Cl)=C(Cl)Cl)Nc1ccccc1`, the GI50 in test [1], in test [2], in test [3], in test [4], in [5] and in test [6] was more than 100 µM in each case. Further, the GI50 in test [7], in test [8], in test [9] and in test [10] was more than 100 µM each time. The TGI in [1], in test [2], in test [3], in [4], in [5] and in [6] was more than 100 µM each time. Also, the TGI in [7], in test [8], in test [9] and in [10] was more than 100 µM each time.

With `COc1cc(C2Cc3ncccc3-c3[nH]c(=O)c4cccnc4c32)cc(OC)c1OC` (stereo not given), the GI50 in test [1] is 0.485 µM; in test [2], more than 100 µM; in test [3], 0.97 µM; in test [4], 0.332 µM; in test [5] it was 3.21 µM; in test [6], more than 100 µM. In addition, the GI50 in test [7] was 0.463 µM; in [8] it was 0.669 µM; in test [9] it was 0.428 µM; in test [10] it was 0.999 µM. In addition, the TGI in test [1] was more than 100 µM; in [2] it was more than 100 µM; in test [3] it was more than 100 µM; in test [4], 1.27 µM; in test [5], more than 100 µM; in test [6] it was more than 100 µM. The TGI in test [7], in test [8], in [9] and in [10] was more than 100 µM each time.

Regarding `COc1ccc(/C=C(/C#N)C(N)=O)c(OC)c1`, the TGI in [1], in [2], in [3], in test [4], in test [5] and in test [6] was more than 100 µM throughout. For the same compound, the TGI in test [7], in [8], in test [9] and in test [10] was more than 100 µM in each case.

For `CCOC(=O)c1cc(C(=O)c2cc(OC)c(OC)c(OC)c2)n2ncccc12`, the GI50 in [1] was 0.466 µM; in test [2] it was 26.4 µM; in [3] it was 0.584 µM; in test [4] it was 0.23 µM; in test [5] it was 0.65 µM; in [6] it was 65.7 µM. Further, the GI50 in test [7] was 0.196 µM; in [8], 1.34 µM; in test [9], 0.37 µM; in [10], 0.707 µM. In addition, the TGI in test [1] is more than 100 µM; in test [2], more than 100 µM; in [3] it was more than 100 µM; in test [4] it was 1.33 µM; in [5], more than 100 µM; in [6], more than 100 µM. Further, the TGI in test [7], in test [8], in test [9] and in [10] was more than 100 µM throughout.

In the case of `O=C1CSCc2sccc21`, the TGI in [1], in [2], in test [3], in test [4], in test [5] and in test [6] was more than 100 µM throughout. Further, the TGI in test [7], in [8], in test [9] and in test [10] was more than 100 µM in each case.

For `CCSCC1CC(O)(c2ccccc2)CC(c2ccc(F)cc2)O1` (stereo not given), the GI50 in test [1] was 1.79 µM; in test [2], 2.16 µM; in [3], 2.95 µM; in test [4], 1.53 µM; in test [5] it was 2.13 µM; in [6] it was 2.27 µM. Besides, the GI50 was 1.42 µM in test [7], 2.37 µM in [8], 2.66 µM in [9] and 2.1 µM in [10]. For the same compound, the TGI in test [1] worked out at 3.53 µM; in [2], 6.13 µM; in test [3], 8.79 µM; in test [4], 2.87 µM; in test [5], 6.04 µM; in [6] it was 5.26 µM. The TGI in [7] came to 3.2 µM; in test [8], 6.56 µM; in test [9], 7.17 µM; in [10], 5.28 µM.

Consider `CCCCCCCCCCCCOC1C(CNC(=O)C2OC3OC(C)(C)OC3C2NC(=O)Nc2ccc(CC(=O)OC)cc2)OC2OC(C)(C)OC21` (stereo not given), for which the GI50 was more than 100 µM in test [1]; more than 100 µM in [2]; more than 100 µM in [3]; more than 72.5 µM in test [4]; more than 100 µM in test [5]; more than 100 µM in [6]. Moreover, the GI50 was more than 100 µM in test [7], more than 100 µM in test [8], more than 77 µM in test [9] and more than 100 µM in [10]. Further, the TGI in test [1], in [2], in [3], in test [4], in test [5] and in test [6] was more than 100 µM each time. Further, the TGI in [7], in test [8], in test [9] and in test [10] was more than 100 µM each time.

For the compound `CC(C)c1[nH]nc(C(N)=O)c1N=NN(C)C`, the TGI in test [1], in test [2], in [3], in test [4], in test [5] and in [6] was more than 100 µM throughout. For the same compound, the TGI in test [7], in test [8], in [9] and in [10] was more than 100 µM throughout.
